The values below come from US7531318B2, “Screening of agents for activity against ischemic myocardial insults” (priority 2004, dated 2009).

Assay [1] deals with T1, PINCH (Mus musculus, UniProt Q99JW4).
T1 construct: Myc or Flag (co-immunoprecipitation part only); expressed in transfected cells; host or cells: Cos and 10T1/2 cells (co-IP); T7Select10-3 phage displaying mouse embryonic heart cDNA (phage display / ELISA)
Kind of assay: Phage display, ELISA and co-immunoprecipitation of thymosin β4 interacting proteins: PINCH. Type of assay: binding. From the text: Embryonic T7 phage display cDNA library and phage biopanning. Equal amounts of messenger RNA were isolated and purified from E9.5-E12.5 mouse embryonic hearts by using Straight A's mRNA Isolation System (Novagen). cDNA was synthesized by using T7Select10-3 OrientExpress cDNA Random Primer Cloning System (Novagen). The vector T7Select10-3 was used to display random-primed cDNA at the C terminus of 5-15 phage 10B coat protein molecules. 10^9 plaque-forming units of the T7 phage embryonic heart library (100× of the complexity) in 500 μl of PBST was applied to a column of Affi-gel bound to thymosin β4 to achieve low-stringency biopanning to identify thymosin β4 interacting partners. See Supplementary Methods for details of phage packaging, phage biopanning and ELISA confirmation.
Co-immunoprecipitation. Cos and 10T1/2 cells were transfected with thymosin β4, PINCH and/or ILK and lysates precipitated with antibodies to each as previously described (Garg et al., 2003). Western blots were performed using anti-ILK polyclonal antibody (Santa Cruz), anti-thymosin β4 polyclonal antibody (Yu et al., 1993) (gift of H. Yin) and anti-Myc or anti-Flag antibody against tagged versions of PINCH.
Thymosin β4 activates ILK and Akt. […]

Assay [2] deals with ILK, Akt (serine 473) in C2C12 myoblasts and embryonic heart explants. Kind of assay: ILK localization/expression and Akt phosphorylation by immunocytochemistry and western blot. Type of assay: cell-based. On the procedure:
(§1) Immunocytochemistry on collagen gel explants. Paraformaldehyde-fixed explants were permeabilized for 10 min at room temperature with Permeabilize solution (10 mM PIPES pH 6.8; 50 mM NaCl, 0.5% Triton X-100, 300 mM sucrose, 3 mM MgCl2) and rinsed with PBS twice for 5 min each at room temperature. After a series of blocking and rinsing steps, detection antibodies were used and explants rinsed and incubated with equilibration buffer (Anti-Fade kit) for 10 min at room temperature. Explants were scooped to a glass microscope slide, covered and examined by fluorescein microscopy. TUNEL assay was performed using ApopTag plus fluorescein in situ apoptosis detection kit (Intergen Company S7111) as recommended.
Because recruitment of ILK to the focal adhesion complex is important for its activation, the inventors assayed the effects of thymosin β4 on ILK localization and expression. […] Because thymosin β4 sequesters the pool of G-actin monomers, the inventors asked whether the effects on ILK activation were dependent on the role of thymosin β4 in regulating the balance between polymerized F-actin and monomeric G-actin.
For orientation: Immunoblotting shows a protein as a band on a membrane.

Assay [3] relates to ILK, phosphorylated Akt-S 473. Kind of assay: Western blot on heart lysates after coronary ligation. Type of assay: in vivo, mouse. From the text: Animals and surgical procedures. Myocardial infarction was produced in 58 male C57BL/6J mice at 16 weeks of age (25-30 g) by ligation of the left anterior descending coronary artery as previously described (Garner et al., 2003). All animal protocols were reviewed and approved by the University of Texas Southwestern Medical Center Institutional Animal Care Advisory Committee and were in compliance with the rules governing animal use as published by the NIH. Twenty-nine of the ligated mice received thymosin β4 treatment immediately after ligation and the remaining 29 received PBS injections. Treatment was given intracardiac with thymosin β4 (200 ng in 10 μl collagen) or with 10 μl of collagen; intraperitoneally with thymosin β4 (150 μg in 300 μl PBS) or with 300 μl of PBS; or by both intracardiac and intraperitoneal injections. Intraperitoneal injections were given every 3 days until mice were killed. Doses were based on previous studies of thymosin β4 biodistribution (Mora et al., 1997). Hearts were removed, weighed and fixed for histological sectioning. Additional mice were operated on in a similar fashion for studies 0.5, 1, 3, 6 and 11 days after ligation.
Similar to cultured cells, the level of ILK protein was increased in heart lysates of mice treated with thymosin β4 after coronary ligation compared with PBS-treated mice (FIG. 5N).

For assay [4], the system named is E11.5 cardiac outflow tract explants (myocardial cells). Put plainly: Collagen gel migration assay, embryonic heart explant: myocardial cell migration and beating. Type of assay: cell-based, mouse. On the procedure:
Collagen gel migration assay. Outflow tract was dissected from E11.5 wild-type mouse embryos and placed on collagen matrices as previously described (Runyan and Markwald, 1983. After 10 h of attachment explants were incubated in 30 ng per 300 μl thymosin β4 in PBS, PBS alone or thymosin β4 and 100 nM wortmannin. Cultures were carried out for 3-9 days at 37° C. 5% CO2 and fixed in 4% paraformaldehyde in PBS for 10 min at room temperature. Cells were counted for quantification of migration and distance using at least three separate explants under each condition for endothelial migration and eight separate explants for myocardial migration.
as §1
To test the effects of secreted thymosin β4 on cardiac cell migration, the inventors used an embryonic heart explant system designed to assay cell migration and transformation on a collagen gel (Runyan and Markwald, 1983).
To determine whether activation of ILK was necessary for the observed effects of thymosin β4, the inventors used a well-described ILK inhibitor, wortmannin, which inhibits ILK's upstream kinase, phosphatidylinositol-3-OH kinase (PI(3)K) (Delcommenne et al., 1998). Using myocardial cell migration and beating frequency as assays for thymosin β4 activity, the inventors cultured embryonic heart explants as described above in the presence of thymosin β4 with or without wortmannin.

[5] abbreviates: compared to control cells, data not shown.

T1 sequence (Q99JW4 whole entry): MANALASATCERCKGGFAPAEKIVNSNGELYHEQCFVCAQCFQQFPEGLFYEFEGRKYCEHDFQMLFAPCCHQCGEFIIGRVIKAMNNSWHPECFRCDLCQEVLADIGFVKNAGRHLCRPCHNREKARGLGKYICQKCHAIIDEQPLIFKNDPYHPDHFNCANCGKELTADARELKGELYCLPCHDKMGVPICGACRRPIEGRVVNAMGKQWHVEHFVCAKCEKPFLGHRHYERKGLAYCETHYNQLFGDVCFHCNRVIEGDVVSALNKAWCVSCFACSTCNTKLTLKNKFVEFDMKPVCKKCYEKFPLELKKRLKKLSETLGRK

In the case of thymosin β4, the “interaction with PINCH (phage display, ELISA)” value in assay [1] (in the absence of actin, N-terminus fused to affi-gel beads) was “interacted”. The “co-precipitation with PINCH” value in assay [1] (transfected cultured cells) is “co-precipitated”. In addition, in assay [2] (C2C12 cells), the “ILK protein levels (western)” value is listed as “modest increase” and the “total Akt protein” value was “unchanged”. Moreover, the “phosphorylation of Akt at serine 473” value in assay [2] (C2C12 cells, phospho-specific antibody) is given as “increased phosphorylation”. Further, in assay [2] (embryonic heart explants or C2C12 myoblasts, synthetic protein 10 ng per 100 μl or expressing plasmid), the “ILK detection around the cell edges by immunocytochemistry” value is given as “markedly enhanced”. In addition, the “level of ILK protein in heart lysates” value in assay [3] (compared with PBS-treated mice) is “increased”. Moreover, the “amount of phosphorylated Akt-S 473 in heart lysates” value in assay [3] (phospho-specific antibodies) was “elevation”. The “myocardial cell migration away from the explant” value in assay [4] (E11.5 outflow tract explants on collagen, 30 ng per 300 μl thymosin β4 vs PBS, P<0.0001) is on record as “large number of spontaneously beating, cardiac muscle actin-positive cells that migrated away from the explant”. In assay [4] (setting [5]), the “cell death of migrating cells (TUNEL assay)” value is reported as “No significant difference” and the “proliferative rate of migrating cells (phospho-histone H3 immunostaining)” value was “No significant difference”.
